# Experiments:
# SHV-5 = target: T1, SHV-5 (Klebsiella pneumoniae, UniProt P0A3M1); test: β-lactamase enzyme inhibition assay, SHV-5 (cefotaxime substrate); assay type: biochemical
# T1 construct: made in house; host or cells: E. coli BL21(DE3)
# Summary of the method: (§1)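 Read-out is the rate of β-lactam ring hydrolysis monitored by absorbance: 300 nm for imipenem with KPC-2 and 260 nm for cefotaxime with SHV-5. Recombinant native enzymes were first incubated with compound at 37 °C for 15 min. The IC50 is the inhibitor concentration that halves the initial hydrolysis rate.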
# KPC-2 = target: T2, KPC-2 (Klebsiella pneumoniae, UniProt Q9F663); test: β-lactamase enzyme inhibition assay, KPC-2 (imipenem substrate); assay type: biochemical; settings: Class A; imipenem substrate, 300 nm; read-out: KPC-2
# T2 construct: made in house; host or cells: E. coli BL21(DE3)
# Summary of the method: as §1
# VIM-2 = target: T3, VIM-2 (Escherichia coli, UniProt Q5U7L7); test: β-lactamase enzyme inhibition assay, VIM-2 (nitrocefin substrate); assay type: biochemical; settings: Class B; nitrocefin substrate, 486 nm; read-out: VIM-2
# T3 construct: made in house; host or cells: E. coli BL21(DE3)
# Summary of the method: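 Purified VIM-2 preincubated with inhibitor for 15 min at 37° C, then nitrocefin (100 μM final) added and absorbance at 486 nm followed for 10 min. Maximum hydrolysis rates compared with inhibitor-free controls; IC50 fitted from percent inhibition across inhibitor concentrations.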
# AmpC = target: T4, AmpC (Enterobacter cloacae, UniProt P05364); test: β-lactamase enzyme inhibition assay, p99 AmpC (nitrocefin substrate); assay type: biochemical
# T4 construct: made in house; host or cells: E. coli BL21(DE3)
# Summary of the method: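 Read-out is the rate of β-lactam ring hydrolysis monitored by absorbance. Recombinant native enzymes were first incubated with compound at 37 °C for 15 min. The IC50 is the inhibitor concentration that halves the initial hydrolysis rate.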
# OXA-48 = OXA-48 (UniProt Q6XEC0); test: β-lactamase enzyme inhibition assay, Class D oxacillinase; assay type: biochemical; settings: read-out: OXA-48
# [1] = test system: E. coli expressing the Class A Extended Spectrum Beta-Lactamase (ESBL) CTX-M-15; test: Broth microdilution MIC assay with ceftazidime, E. coli CTX-M-15; assay type: cell-based; settings: Fixed CAZ (ceftazidime) 4 μg/mL; E. coli ESBL4 CTX-M-15
# Summary of the method: (§2)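 Test compounds in 2-fold dilutions (16 to 0.125 μg/mL final) in CAMHB were combined with a β-lactam at a static 4 μg/ml final. Plates were inoculated per CLSI broth microdilution with the β-lactamase-producing strain (pre-grown 3-5 h) and incubated 16-20 h at 37° C. MIC of test compound was read visually.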
# [2] = test system: E. cloacae expressing the Class C P99; test: Broth microdilution MIC assay with ceftazidime, E. cloacae P99; assay type: cell-based; settings: Fixed CAZ (ceftazidime) 4 μg/mL; E. cl. 144200 p99 AmpC
# Summary of the method: as §2
# [3] = test system: K. pneumoniae expressing the Class A carbapenemase KPC-2; test: Broth microdilution MIC assay with meropenem, K. pneumoniae KPC-2; assay type: cell-based; settings: Fixed Mero (meropenem) 4 μg/mL; K. p. 156319 KPC-3
# Summary of the method: as §2
# [4] = test system: P. aeruginosa expressing the Class B carbapenemase VIM-2; test: Broth microdilution MIC assay with meropenem, P. aeruginosa VIM-2; assay type: cell-based; settings: Fixed Mero (meropenem) 4 μg/mL; P. aerug. 2775 VIM-2
# Summary of the method: as §2
# [5] = test system: K. pneumoniae expressing the class A carbapenemase KPC-2 and the class B carbapenemase VIM-4; test: Broth microdilution MIC assay with meropenem, K. pneumoniae KPC-2 and VIM-4; assay type: cell-based; settings: Fixed Mero (meropenem) 4 μg/mL; K. p. A-1797 KPC-2 VIM-4
# Summary of the method: as §2
# [6] = test system: K. pneumoniae producing the Class D carbapenemase OXA-48; test: Broth microdilution MIC assay with meropenem, K. pneumoniae OXA-48; assay type: cell-based; settings: Fixed Mero (meropenem) 4 μg/mL; K. p. 11978 OXA-48
# Summary of the method: as §2
# T4 sequence (P05364 21-381): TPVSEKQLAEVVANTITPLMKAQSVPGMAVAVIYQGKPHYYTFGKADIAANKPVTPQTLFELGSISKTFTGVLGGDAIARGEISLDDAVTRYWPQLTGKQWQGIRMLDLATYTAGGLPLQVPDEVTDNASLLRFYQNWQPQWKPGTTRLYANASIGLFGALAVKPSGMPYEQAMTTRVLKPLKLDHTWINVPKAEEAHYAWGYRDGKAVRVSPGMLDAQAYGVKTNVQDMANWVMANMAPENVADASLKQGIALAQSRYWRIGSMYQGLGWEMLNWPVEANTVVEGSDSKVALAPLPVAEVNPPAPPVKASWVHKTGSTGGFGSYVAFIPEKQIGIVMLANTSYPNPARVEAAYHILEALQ
# T2 sequence (Q9F663 25-293, looked up): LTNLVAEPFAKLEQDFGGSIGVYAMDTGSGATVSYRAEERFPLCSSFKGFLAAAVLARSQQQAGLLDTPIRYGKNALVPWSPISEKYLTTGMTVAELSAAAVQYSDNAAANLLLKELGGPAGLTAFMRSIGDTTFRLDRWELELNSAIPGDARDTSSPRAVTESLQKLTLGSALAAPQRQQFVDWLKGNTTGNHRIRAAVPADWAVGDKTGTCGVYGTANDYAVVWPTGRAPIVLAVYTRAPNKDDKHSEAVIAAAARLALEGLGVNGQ
# T1 sequence (P0A3M1 22-286): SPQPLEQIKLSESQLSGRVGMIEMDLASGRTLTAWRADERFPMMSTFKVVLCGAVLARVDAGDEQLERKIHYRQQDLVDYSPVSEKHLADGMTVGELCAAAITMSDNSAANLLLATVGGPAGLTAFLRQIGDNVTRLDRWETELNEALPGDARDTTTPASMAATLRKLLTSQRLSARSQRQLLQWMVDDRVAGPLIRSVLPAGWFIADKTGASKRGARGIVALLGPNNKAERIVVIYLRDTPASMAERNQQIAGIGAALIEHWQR
Compound,IC50 (SHV-5),IC50 (KPC-2),IC50 (VIM-2),IC50 (AmpC),IC50 (OXA-48),MIC (μg/mL) of Exemplary Compounds in presence of fixed β-lactams: E. coli ESBL4 CTX-M-15 [1],MIC (μg/mL) of Exemplary Compounds in presence of fixed β-lactams: E. cl. 144200 p99 AmpC [2],MIC (μg/mL) of Exemplary Compounds in presence of fixed β-lactams: K. p. 156319 KPC-3 [3],MIC (μg/mL) of Exemplary Compounds in presence of fixed β-lactams: P. aerug. 2775 VIM-2 [4],MIC (μg/mL) of Exemplary Compounds in presence of fixed β-lactams: K. p. A-1797 KPC-2 VIM-4 [5],MIC (μg/mL) of Exemplary Compounds in presence of fixed β-lactams: K. p. 11978 OXA-48 [6]
"CCN(CC)Cc1cn(CC(=O)N[C@H]2Cc3cccc(C(=O)O)c3OB2O)nn1 [Example 27, (R)-3-(2-(4-((diethylamino)methyl)-1H-1,2,3-triazol-1-yl)acetamido)-2-hydroxy-3,4-dihydro-2H-benzo[e][1,2]oxaborinine-8-carboxylic acid]",< 100 nM,< 100 nM,100 to 1000 nM,< 100 nM,100 to 1000 nM,C (C represents an MIC of <1 μg/mL),C (C represents an MIC of <1 μg/mL),B (B represents an MIC between 1 and 16 μg/mL inclusive),B (B represents an MIC between 1 and 16 μg/mL inclusive),B (B represents an MIC between 1 and 16 μg/mL inclusive),B (B represents an MIC between 1 and 16 μg/mL inclusive)
"O=C(Cn1cc(-c2cccs2)nn1)N[C@H]1Cc2cccc(C(=O)O)c2OB1O [Example 28, (R)-2-hydroxy-3-(2-(4-(thiophen-2-yl)-1H-1,2,3-triazol-1-yl)acetamido)-3,4-dihydro-2H-benzo[e][1,2]oxaborinine-8-carboxylic acid]",< 100 nM,< 100 nM,100 to 1000 nM,< 100 nM,100 to 1000 nM,C (C represents an MIC of <1 μg/mL),C (C represents an MIC of <1 μg/mL),B (B represents an MIC between 1 and 16 μg/mL inclusive),B (B represents an MIC between 1 and 16 μg/mL inclusive),A (A represents an MIC>16 μg/mL),B (B represents an MIC between 1 and 16 μg/mL inclusive)
"O=C(Cn1cc(-c2ccsc2)nn1)N[C@H]1Cc2cccc(C(=O)O)c2OB1O [Example 29, (R)-2-hydroxy-3-(2-(4-(thiophen-3-yl)-1H-1,2,3-triazol-1-yl)acetamido)-3,4-dihydro-2H-benzo[e][1,2]oxaborinine-8-carboxylic acid]",< 100 nM,< 100 nM,100 to 1000 nM,< 100 nM,100 to 1000 nM,C (C represents an MIC of <1 μg/mL),C (C represents an MIC of <1 μg/mL),B (B represents an MIC between 1 and 16 μg/mL inclusive),B (B represents an MIC between 1 and 16 μg/mL inclusive),B (B represents an MIC between 1 and 16 μg/mL inclusive),B (B represents an MIC between 1 and 16 μg/mL inclusive)
"NCc1cn(CCC(=O)N[C@H]2Cc3cccc(C(=O)O)c3OB2O)nn1 [Example 30, (R)-3-(3-(4-(aminomethyl)-1H-1,2,3-triazol-1-yl)propanamido)-2-hydroxy-3,4-dihydro-2H-benzo[e][1,2]oxaborinine-8-carboxylic acid]",< 100 nM,< 100 nM,100 to 1000 nM,< 100 nM,100 to 1000 nM,C (C represents an MIC of <1 μg/mL),C (C represents an MIC of <1 μg/mL),C (C represents an MIC of <1 μg/mL),B (B represents an MIC between 1 and 16 μg/mL inclusive),B (B represents an MIC between 1 and 16 μg/mL inclusive),B (B represents an MIC between 1 and 16 μg/mL inclusive)
"COc1c(C[C@H](NC(=O)Cn2cc(CN)nn2)B(O)O)cccc1C(=O)O [Example 31, (R)-3-(2-(2-(4-(aminomethyl)-1H-1,2,3-triazol-1-yl)acetamido)-2-boronoethyl)-2-methoxybenzoic acid]",< 100 nM,< 100 nM,100 to 1000 nM,100 to 1000 nM,1000 to 10000 nM,B (B represents an MIC between 1 and 16 μg/mL inclusive),C (C represents an MIC of <1 μg/mL),B (B represents an MIC between 1 and 16 μg/mL inclusive),C (C represents an MIC of <1 μg/mL),B (B represents an MIC between 1 and 16 μg/mL inclusive),A (A represents an MIC>16 μg/mL)
"O=C(Cn1nnc(CN2CCOCC2)c1CN1CCOCC1)N[C@H]1Cc2cccc(C(=O)O)c2OB1O [Example 32, (R)-3-(2-(4,5-bis(morpholinomethyl)-1H-1,2,3-triazol-1-yl)acetamido)-2-hydroxy-3,4-dihydro-2H-benzo[e][1,2]oxaborinine-8-carboxylic acid]",< 100 nM,< 100 nM,100 to 1000 nM,< 100 nM,100 to 1000 nM,B (B represents an MIC between 1 and 16 μg/mL inclusive),A (A represents an MIC>16 μg/mL),B (B represents an MIC between 1 and 16 μg/mL inclusive),B (B represents an MIC between 1 and 16 μg/mL inclusive),A (A represents an MIC>16 μg/mL),A (A represents an MIC>16 μg/mL)
"CC(C)(C(=O)N[C@H]1Cc2cccc(C(=O)O)c2OB1O)n1cc(CN)nn1 [Example 33, (R)-3-(2-(4-(aminomethyl)-1H-1,2,3-triazol-1-yl)-2-methylpropanamido)-2-hydroxy-3,4-dihydro-2H-benzo[e][1,2]oxaborinine-8-carboxylic acid]",< 100 nM,< 100 nM,< 100 nM,< 100 nM,< 100 nM,C (C represents an MIC of <1 μg/mL),C (C represents an MIC of <1 μg/mL),B (B represents an MIC between 1 and 16 μg/mL inclusive),C (C represents an MIC of <1 μg/mL),C (C represents an MIC of <1 μg/mL),B (B represents an MIC between 1 and 16 μg/mL inclusive)

# — patent US11046716B2, “Beta-lactamase inhibitors” (priority 2015, dated 2021)
